Measurements from patent US6337316B1, “Pharmaceutical compositions thereof, and methods of using same” (Applied Research Systems ARS Holding N.V., priority 1997, dated 2002).
Values belong to the molecule of their own block, whether it stands above or below them. Bridge positions count the residues as written; N and C are the ends. Ends that are not written are not given here.

Key:
[1] = system: murine MLR splenocyte proliferation; test: One-way murine MLR (C57Bl/6 stimulators, BalB/c responders); assay type: cell-based, mouse; details: peptides tested 100 μM to 1.56 μM (FIG. 9)
Protocol: One-way murine MLRs were set up using the C57Bl/6 mice splenocytes as stimulators and BalB/c splenocytes as responders.
Spleens were excised from mice (Jackson Laboratories, Bar Harbor, Ma.) 6-8 weeks of age. Cells were separated from the capsule using sterile frosted glass slides and washed in cold RPMI 1640 1×. Red blood cells were lysed by treating the spleen cell suspension with cold Tris ammonium chloride buffer (2 ml/spleen) for 3 min on ice. After lysis, the cells were washed 2× in 5 volumes of complete medium (RPMI 1640 containing 10 % heat-inactivated FBS, 2 mM glutamine, 50 μM 2-mercaptoethanol, 100 U/ml penicillin-100 μg/ml strepcomycin, 1 mM sodium pyruvate and 1 mM non-essential amino acids).
Plastic-adherent cells were removed from splenocytes of BalB/c mice by adjusting the cell concentration to 3×10^6 cells/ml in complete medium and incubating the cells for 1.5-2 h at 37° C. in T-75 flasks. Following incubation non-adherent cells were collected by gently washing the flasks and the percent recovery determined (60-70%). Bal b/C responder cells were stored on ice until mitomycin C treatment of stimulator cells was completed.
Following RBC lysis splenocytes of C57Bl/6 mice were adjusted to 2-4×10^6 cells/ml in complete medium and treated with mitomycin C (50 μg/ml) for 30 min at 37° C. in a humidified 5% CO2 in air atmosphere. Following treatment, cells were washed with 5 volumes of complete medium 3×, and viable counts determined using trypan blue.
To set up autologous stimulation controls some responder cells were also treated with mitomycin C as mentioned above.
For the assay, responder and stimulator cells were plated at 10^5 cells/well in 96-well round bottom plates. […]
Appropriate scrambled peptide controls and matrix controls were included in every assay. […] Proliferation of the cells was determined by pulsing the wells with 3H-Tdr (1 μCi/well) For the last 6 h of the assay. Plates were harvested and the counts incorporated determined as described above.

[2] = system: lymphocyte proliferation in the human MLR; assay type: cell-based; details: for effect on the human MLR in combination with CTLA-4Ig: CTLA-4Ig spiked in at 0.5 μg/ml (FIG. 8); for inhibition of the MLR, in words: control and linear peptides compared with AT 199; for Human MLR (ability to inhibit lymphocyte proliferation, cpm): peptide 12.5 to 100 μM, assays of 1/24, 1/31, 3/6, 4/17, 5/2, one symbol per assay
Protocol: Whole blood from donors was obtained from Interstate Blood Bank, Memphis, Tenn. Blood specimens were handled in a biosafety level 2 containment facility as recommended for potentially infectious blood specimens in the CDC/NIH manual Biosafety in Microbiological and Biomedical Laboratories; 3rd edition, 1993, page 10. Peripheral blood mononuclear cells (PBMC) were separated from red blood cells and granulocytes by ficoll-hypaque purification. Whole peripheral blood was diluted 1:2 in PBS and 30 ml was overlayed onto 15 ml of ficoll-hypaque in 50 ml polypropylene tubes. The tubes were spun at 400×g for 30 min at 25° C. Following centrifugation, the interface between the upper plasma layer and the lower ficoll layer was collected, cells washed in RPMI-1640 2×, and viable counts determined using trypan blue. Cells to be used as responders in the assay were stored on ice until mitomycin C treatment of stimulator cells was completed.
PBMC, isolated as described above, to be used as stimulators in the assay were adjusted to 2-4×10^6 cells/ml in complete medium (RPMI 1640 containing 10% heat-inactivated human AB serum, 2 mM glutamine, 50 μM 2-mercaptoethanol and 100 U/ml penicillin-100 μg/ml streptomycin), and treated with mitomycin C (25 μg/ml) for 30 min in a 37° C. water bath. Following treatment, cells were washed with S volumes of complete medium 3×, and viable counts determine using trypan blue. To set up autologous stimulation controls some responder cells were also treated with mitomycin C as mentioned above.
Purified CTLA-4Ig fusion protein was produced, as described in Steurer et al. 1995, from a NS-1 cell line kindly donated by Dr. T. Strom (Beth Israel Hospital, Boston, Mass.) as a 1 mg/ml solution in sterile PBS. The protein was stored frozen at −80° C. Upon thawing, the aliquot was stored at 4° C. Purified peptides were lyophilized according to known procedures. Peptides were reconstituted in sterile PBS, pH 7.4 at 2 mM concentration, aliquoted in microfuge cubes and stored frozen at −20° C. For the assay, an aliquot of the peptide was thawed and diluted to 200 μM in complete medium.
For the one-way allogeneic mixed lymphocyte response (MLR) assay, responder cells were plated at 10^6 cells/well, and stimulator cells at 5×10^4 cells/well in 96-well round bottom plates. Cells were incubated with serial dilutions of the anti-CD4 Ab Leu 3A (1 μg/ml-0.06 μg/ml) in triplicate, or an isotype-matched control Ab. Cyclosporin A at 1 μg/ml was used as an additional control.
CTLA-4 Ig was serially diluted an.4 tested from 10 μg/ml to 0.15 μg/ml. Peptides were tested either directly or in the presence of a constant spiked-in dose of CTLA-4 Ig at 0.5 μg/ml. The plates were incubated at 37° C. in a humidified 5% CO2 atmosphere for 7 days.
Proliferation of the cells was determined by pulsing the wells with ^3H-Tdr (1 μCi/well) for the last 18 h of the assay. Plates were harvested using a Tomtec -late harvester and the counts incorporated determined using a Wallac microbetaplate plus reader.
A total of 34 peptides were tested for inhibition of lymphocyte proliferation in the human MLR. Each peptide was tested in a MLR at doses ranging from 12.5 to 100 μM. The activity of each peptide was identified by assigning a + and − tone peptide depending on its ability to inhibit lymphocyte proliferation in the MLR (cpms).

[3] = system: binding of CTLA-4Ig to B7 on Cess B cells; test: CTLA-4Ig/B7 binding assay on Cess B cells by FACS; details: FACS; assays of 3/24, 3/25, 4/5, 4/25; one symbol per assay
Protocol: +++ was assigned if the peptide tested gave >50% change in cpm in a dose dependent fashion. In addition to the MLR, these 34 peptides were also evaluated in a CTLA-4Ig/B7 binding assay in which the ability of these peptides to affect the binding of CTLA-4Ig to B7 on Cess B cells was examined by FACS analysis.
As with the MLR, a + or − was assigned to each peptide depending on its ability to effect CTLA-4Ig binding to Cess B cells; where − represents no change in binding, + represents a minor change of <10% in binding, and a ++ represents a change of >20% in binding.

[4] = target: B7 on Cess B cells; test: FACS competition with CTLA-4Ig on Cess B cells; one grade per run; - no change, + <10% change, ++ >20% change
[5] = target: B7 on Cess B cells; test: cell-based or functional assay

Molecule: AT 199.3: resynthesis of AT 199.1 using the original protocols without change (RKCLMYPPPYYCHH; disulfide 3-12 (inferred); not fully specified (C-terminus); also: disulfide cyclisation only partial, mixed cyclic and linear population)
- inhibition of the murine MLR [1]: 85%
- inhibition of the human MLR ([2]; 100 μM, one MLR): 30%
- effect on the human MLR in combination with CTLA-4Ig [2]: inhibited the MLR over and above CTLA-4Ig by itself

Molecule: RKCLAYPPPYYCHH (not fully specified (bridges); cysteine pairing not given here) [AT 200.1]
- inhibition of the MLR, in words [2]: did not inhibit any of the MLRs as much as AT 199
- Human MLR (ability to inhibit lymphocyte proliferation, cpm) [2]: −, −, −
- Binding Assay (effect on CTLA-4Ig binding to Cess B cells) [3]: −, −, −

Molecule: RKCLGYPPPYYCHH (not fully specified (bridges); cysteine pairing not given here) [AT 201.1]
- inhibition of the murine MLR [1]: 25%
- effect on the human MLR in combination with CTLA-4Ig [2]: no effect
- inhibition of the MLR, in words [2]: did not inhibit any of the MLRs as much as AT 199
- Human MLR (ability to inhibit lymphocyte proliferation, cpm) [2]: −, −, −
- Binding Assay (effect on CTLA-4Ig binding to Cess B cells) [3]: −, −, −

- percent change in CTLA-4Ig binding to B7 on Cess B cells (FACS) [4]: > 20%
B1: AT 135.1 (peptide)
peptide: CSPNQC
modifications: disulfide 1-6 (inferred); not fully specified (C-terminus)

- percent change in CTLA-4Ig binding to B7 on Cess B cells (FACS) [4]: < 10%
B2: AT 128.1 (peptide)
peptide: CRQADSQVTEC
modifications: disulfide 1-11 (inferred); not fully specified (C-terminus)

- apparent IC50 of inhibition in the MLR [5]: 50 to 100 µM
- inhibition of human MLR by batch AT 199.2A at 100 µM, one MLR [5]: 50%
- inhibition of human MLR by batch AT 199.2A, another MLR [5]: 25%
- inhibition of human MLR by batch AT 199.3 at 100 µM, one MLR [5]: 30%
- inhibition of lymphocyte proliferation in a human MLR (AT 199, doses up to 100 µM) [5]: 70%
- inhibition of lymphocyte proliferation in a second human MLR (AT 199, doses up to 100 µM) [5]: 30%
B3: AT 199.1 (peptide)
peptide: RKCLMYPPPYYCHH
modifications: disulfide 3-12; not fully specified (C-terminus)

- percent change in CTLA-4Ig binding to B7 on Cess B cells (FACS) [4]: < 10%
B4: AT 117.1 (peptide)
peptide: LDSAVEV-OH

- percent change in CTLA-4Ig binding to B7 on Cess B cells (FACS) [4]: > 20%
B5: AT 129.1 (peptide)
peptide: CMYPPPYYRGGKC
modifications: disulfide 1-13 (inferred); not fully specified (C-terminus)
